The results in this text go back to ChEMBL document CHEMBL3045135, “Synthesis, characterization and pharmacological evaluation of (E)-N-(substituted-benzylidene)isonicotinohydrazide derivatives as potent anticonvulsant agents” (Med Chem Res, 2012).

The source made the active and inactive calls. No cut-off for these calls is given here.

Data set [1] has as its system Mus musculus. Kind of data set: Anticonvulsant activity in Mus musculus C57B/6 (mouse) assessed as protection against subcutaneous pentylene tetrazole-induced seizure at 300 mg/kg, ip after 4 hr. The data set is classed as functional, organism-based. Further details: dose 300 mg/kg.
For data set [2], the system named is Mus musculus. Kind of data set: Anticonvulsant activity in Mus musculus C57B/6 (mouse) assessed as protection against 6 Hz psychomotor seizure at 100 mg/kg, ip after 0.25 to 4 hr by minimal clonic seizure test. The data set is classed as functional, organism-based. Further details: dose 100 mg/kg.
For data set [3], the system named is Mus musculus. Kind of data set: Anticonvulsant activity in Mus musculus C57B/6 (mouse) assessed as protection against maximal electroshock-induced seizure at 300 mg/kg, ip after 4 hr. Further details: dose 300 mg/kg. The class given is functional, organism-based. (In general: In the maximal electroshock model the usual endpoint is tonic extension of the hind limbs.)

The test system of data set [4] is Mus musculus. Kind of data set: Anticonvulsant activity in ip dosed Mus musculus C57B/6 (mouse) assessed as protection against maximal electroshock-induced seizure after 0.5 hr. The class given is functional. The conditions noted are these: C57B/6, ip, read-out: MED.
Data set [5] relates to Mus musculus. Kind of data set: Neurotoxicity in Mus musculus C57B/6 (mouse) assessed as minimal motor impairment at 300 mg/kg, ip after 4 hr. The conditions noted are these: in vivo. Also noted: dose 300 mg/kg, route intraperitoneal. The class given is toxicity, organism-based.
Data set [6] deals with Mus musculus. Kind of data set: Neurotoxicity in Mus musculus C57B/6 (mouse) assessed as minimal motor impairment at 300 mg/kg, ip after 0.5 hr. The class given is toxicity, organism-based. Also noted: dose 300 mg/kg, route intraperitoneal. The conditions noted are these: in vivo.
Data set [7] deals with Mus musculus. Kind of data set: Anticonvulsant activity in Mus musculus C57B/6 (mouse) assessed as protection against subcutaneous pentylene tetrazole-induced seizure at 300 mg/kg, ip after 0.5 hr. Also noted: dose 300 mg/kg. The class given is functional, organism-based.
Data set [8] in a line: Neurotoxicity in ip dosed Mus musculus C57B/6 (mouse) assessed as minimal motor impairment after 4 hr. The data set is classed as toxicity, organism-based. The note with it: in vivo.
The subject of data set [9] is Mus musculus. Kind of data set: Anticonvulsant activity in Mus musculus C57B/6 (mouse) assessed as protection against maximal electroshock-induced seizure at 300 mg/kg, ip after 0.5 hr. The class given is functional, organism-based. Also noted: dose 300 mg/kg.
The test system of data set [10] is Mus musculus. Kind of data set: Anticonvulsant activity in ip dosed Mus musculus C57B/6 (mouse) assessed as protection against subcutaneous pentylene tetrazole-induced seizure after 0.5 hr. The data set is classed as functional. The conditions noted are these: C57B/6, 0.5 h, read-out: MED.
In data set [11] the test system is Mus musculus. Kind of data set: Anticonvulsant activity in ip dosed Mus musculus C57B/6 (mouse) assessed as protection against maximal electroshock-induced seizure after 4 hr. The data set is classed as functional. The conditions noted are these: C57B/6, ip, read-out: MED.

In the case of `CCOc1ccccc1/C=N/NC(=O)c1ccncc1`, the outcome in data set [1], in data set [3] and in data set [7] was inactive. The outcome in [2] was Active. The minimal effective dose in data set [4] is 300 mg/kg. The Activity entry in data set [5] and in [6] was “Non-toxic” each time.

Regarding `O=C(N/N=C(\c1ccccc1)c1ccc(Br)cc1)c1ccncc1`, the outcome in [1], in data set [3], in data set [9] and in [7] was inactive. For the same compound, the Activity entry in data set [6] is given as “Non-toxic”. The MTD at 4 h in data set [8] was 100 mg/kg.

With `O=C(NN=C(c1ccccc1)c1ccccc1)c1ccncc1`, the result in [1] and in [3] was inactive. Also, the minimal effective dose in data set [10] and in [4] was 300 mg/kg each time. Further, in [2], the outcome was Active. Besides, the Activity result in data set [5] and in [6] was “Non-toxic” throughout.

In the case of `O=C(N/N=C/c1ccccc1)c1ccncc1` [N'-BENZYLIDENE ISONICOTINOHYDRAZIDE], the outcome in [1], in data set [3] and in data set [7] was inactive. Moreover, the result in [2] was Active. Moreover, in data set [4], the minimal effective dose worked out at 300 mg/kg. Moreover, the Activity result in data set [5] and in data set [6] was “Non-toxic” throughout.

Regarding `O=C(N/N=C/c1cccc(F)c1)c1ccncc1`, the result in data set [1], in data set [3] and in data set [7] was inactive. Besides, the outcome in [2] was Active. Further, the minimal effective dose in data set [4] turned out to be 300 mg/kg. The Activity entry in [5] and in data set [6] was “Non-toxic” each time.

In the case of `O=C1NC(=O)C(c2ccccc2)(c2ccccc2)N1` [PHENYTOIN], the outcome in data set [1] and in data set [7] was inactive. Besides, the minimal effective dose in data set [4] and in data set [11] was 30 mg/kg in each case.

On to `C/C(=N\NC(=O)c1ccncc1)c1ccccc1` [ISONICOTINOYLHYDRAZONE OF ACETOPHENONE], for which the result in data set [1], in data set [3], in data set [9] and in [7] was inactive. Further, the MTD at 4 h in data set [8] is 300 mg/kg.

For the compound `CN(C)c1ccc(/C=N/NC(=O)c2ccncc2)cc1` [N'-(4-DIMETHYLAMINOBENZYLIDENE)ISONICOTINOHYDRAZIDE], the result in [1], in data set [3], in data set [9] and in data set [7] was inactive. In addition, the Activity result in [6] was “Non-toxic”. Further, the MTD at 4 h in [8] was found to be 300 mg/kg.
